System: cardiomyocytes
Experiment: Adult primary cardiomyocyte glucose uptake test
Assay type: cell-based, mouse
Conditions: db/db cardiomyocytes, 10 nM insulin, metformin (20 µM) positive control
Experimental: Adult mouse cardiomyocytes were isolated from both male and female mice with collagenase II (2 mg/mL, Worthington Biochemical Corporation). Freshly isolated cardiomyocytes were seeded in laminin-precoated culture dishes and cultured in perfusion buffer (120.4 mM NaCl, 14.7 mM KCl, 0.6 mM KH2PO4, 0.6 mM Na2HPO4, 1.2 mM MgSO4×7H2O, 10 mM Hepes, 4.6 mM NaHCO3, 30 mM taurine, and 5.5 mM glucose) for 1 hour in 37° C. and 5% CO2 incubator prior to further experiments.
For glucose uptake assays, freshly isolated CMCs were seeded and cultured in laminin-precoated 96-well plates for 1 hour prior to the test. Cells were then washed twice with glucose-free perfusion buffer (120.4 mM NaCl, 14.7 mM KCl, 0.6 mM KH2PO4, 0.6 mM Na2HPO4, 1.2 mM MgSO4: 7H2O, 10 mM HEPES) and starved in starvation buffer (glucose-free perfusion buffer containing 1 mM pyruvate, 0.1% BSA) for 40 min. Metformin (0, 20 μM) was loaded together with starvation buffer in the indicated groups. Cells were then stimulated in the absence or presence of insulin (0, 10 nM) (Sigma-Aldrich) for 20 min. Following the manufacturer's instructions, 2 DG-glucose uptake test in CMCs was then determined by Glucose Uptake Assay kit (Abcam) and quantified with a FlexStation 3 plate reader (Molecular Devices).

## CN(C)C(=N)N=C(N)N [metformin]
  insulin-stimulated uptake of 2-Deoxy-D-glucose: rescue

Reference: US20250381306A1, “COMPOSITIONS AND METHODS FOR TREATING DIABETIC CARDIOMYOPATHY” (UNIVERSITY OF UTAH RESEARCH FOUNDATION, priority 2022, published 2025)
